Laboratory results published in US9079900B2, “Methods of synthesis and purification of heteroaryl compounds” (SIGNAL PHARMACEUTICALS, LLC, priority 2009, dated 2015).

melting point [°C] | SMILES
239 to 241 | CC(C)(O)c1ccc(-c2cnc3c(n2)N(CCN2CCOCC2)CC(=O)N3)cn1 [Example 5, 6-(6-(2-Hydroxypropan-2-yl)pyridin-3-yl)-4-(2-morpholinoethyl)-3,4-dihydropyrazino[2,3-b]pyrazin-2(1H)-one]
255 to 258 | O=C1CNc2ncc(-c3cnc4[nH]ccc4c3)nc2N1CCC1CCOCC1 [Example 15, 7-(1H-Pyrrolo[2,3-b]pyridin-5-yl)-1-(2-(tetrahydro-2h-pyran-4-yl)ethyl)-3,4-dihydropyrazino[2,3-b]pyrazin-2(1H)-one]
